Measurements published in patent US20150175530A1, “ANTIBACTERIAL AGENTS” (priority 2012, published 2015).
Converted amounts (≈) assume the structure as drawn. Where two headings read alike, the source gives them in different places.

Tests used:
[1] = test system: bacterial isolates (clinical isolates and ATCC quality control strains); experiment: Minimum Inhibitory Concentrations (MICs) by broth microdilution (CLSI susceptibility testing); format: cell-based
Method in brief: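 Broth microdilution per CLSI in cation-adjusted Mueller-Hinton broth, 2-fold serial drug dilutions, final inoculum 3×10^5–7×10^5 CFU/mL. Plates incubated 18-24 h at 35 °C in ambient air; MIC is lowest concentration preventing visible growth (OD600 nm<0.05), with levofloxacin and QC strains monitoring performance.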

[2] = test system: 3 P. aeruginosa strains (APAE001, APAE002, APAE006); experiment: Protein binding: fold change in MIC in the presence of 2% HSA and 0.05% AGP, Geomean of 3 strains; format: cell-based, Pseudomonas aeruginosa; details: MIC in the presence of 2% HSA and 0.05% AGP divided by MIC in the absence; Geomean of 3 P. aeruginosa strains (APAE001, APAE002, APAE006)
Method in brief: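 MIC against each strain was determined by the standard broth method in cation-adjusted Mueller-Hinton broth with and without 2% HSA plus 0.05% AGP. Fold change is the MIC ratio with/without protein per strain; the value reported is the geometric mean over APAE001, APAE002 and APAE006.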

[3] = APAE1096 is a clinical isolate, broth microdilution, read-out: Minimum Inhibitory Concentrations (MICs) APAE1096
[4] = Pseudomonas aeruginosa, APAE002 is a wildtype lab strain of Pseudomonas aeruginosa known as PAM1020 or PA01, broth microdilution, read-out: Minimum Inhibitory Concentrations (MICs) APAE002
[5] = Pseudomonas aeruginosa, ATCC27853, APAE001 is Pseudomonas aeruginosa ATCC27853, broth microdilution, read-out: Minimum Inhibitory Concentrations (MICs) APAE001
[6] = Pseudomonas aeruginosa, ATCC27853, read-out: Minimum Inhibitory Concentrations (MICs) APAE001
[7] = Pseudomonas aeruginosa, read-out: Minimum Inhibitory Concentrations (MICs) APAE002
[8] = read-out: Minimum Inhibitory Concentrations (MICs) APAE1096

Row | Compound | MIC [1, 3] | MIC [1, 4] | MIC [1, 5] | Protein Binding PB (Geomean of fold change in MIC) [2] | MIC [1, 6] | MIC [1, 7] | MIC [1, 8]
1 | CNC(C)(C)[C@H](NC(=O)c1ccc(C#CC#CC[C@H](O)CO)cc1)C(=O)NO [Compound 43, 4-((S)-6,7-dihydroxyhepta-1,3-diyn-1-yl)-N—((S)-1-(hydroxyamino)-3-methyl-3-(methylamino)-1-oxobutan-2-yl)benzamide] | 1 to 8 µg/mL (≈ 2.58 to 20.6 µM) | < 1 µg/mL | < 1 µg/mL | 1.6 | – | – | –
2 | CNC(C)(C)[C@H](NC(=O)c1ccc(C#CC#CC[C@@H](O)CO)cc1)C(=O)NO [Compound 44, 4-((R)-6,7-dihydroxyhepta-1,3-diyn-1-yl)-N—((S)-1-(hydroxyamino)-3-methyl-3-(methylamino)-1-oxobutan-2-yl)benzamide] | 1 to 8 µg/mL (≈ 2.58 to 20.6 µM) | < 1 µg/mL | < 1 µg/mL | 2.0 | – | – | –
3 | C[C@@H](N)[C@H](NC(=O)c1ccc(C#CC#CC(O)CO)cc1)C(=O)NO (stereo partly drawn) [Compound 45, N-((2S,3R)-3-amino-1-(hydroxyamino)-1-oxobutan-2-yl)-4-(5,6-dihydroxyhexa-1,3-diyn-1-yl)benzamide] | – | – | – | 2.0 | 1 to 8 µg/mL (≈ 2.9 to 23.2 µM) | < 1 µg/mL | 1 to 8 µg/mL (≈ 2.9 to 23.2 µM)
4 | COC(C#CC#Cc1ccc(C(=O)N[C@H](C(=O)NO)C(C)(C)N)cc1)CO (stereo partly drawn) [Compound 47, N—((S)-3-amino-1-(hydroxyamino)-3-methyl-1-oxobutan-2-yl)-4-(6-hydroxy-5-methoxyhexa-1,3-diyn-1-yl)benzamide] | – | – | – | 2.6 | < 1 µg/mL | < 1 µg/mL | 1 to 8 µg/mL (≈ 2.68 to 21.4 µM)
5 | CN[C@H](C)[C@H](NC(=O)c1ccc(C#CC#CCCO)cc1)C(=O)NO [Compound 48, N-((2S,3R)-1-(hydroxyamino)-3-(methylamino)-1-oxobutan-2-yl)-4-(6-hydroxyhexa-1,3-diyn-1-yl)benzamide] | 1 to 8 µg/mL (≈ 2.91 to 23.3 µM) | < 1 µg/mL | < 1 µg/mL | 2.0 | – | – | –
6 | CN[C@H](C)[C@H](NC(=O)c1ccc(C#CC#C[C@H](C)O)cc1)C(=O)NO [Compound 49, N-((2S,3R)-1-(hydroxyamino)-3-(methylamino)-1-oxobutan-2-yl)-4-((S)-5-hydroxyhexa-1,3-diyn-1-yl)benzamide] | 1 to 8 µg/mL (≈ 2.91 to 23.3 µM) | < 1 µg/mL | < 1 µg/mL | 2.0 | – | – | –
7 | CC(O)(C#CC#Cc1ccc(C(=O)N[C@H](C(=O)NO)C(C)(C)N)cc1)CO (stereo partly drawn) [Compound 50, N—((S)-3-amino-1-(hydroxyamino)-3-methyl-1-oxobutan-2-yl)-4-(5,6-dihydroxy-5-methylhexa-1,3-diyn-1-yl)benzamide] | 8 to 16 µg/mL (≈ 21.4 to 42.8 µM) | 1 to 8 µg/mL (≈ 2.68 to 21.4 µM) | < 1 µg/mL | 1.6 | – | – | –
8 | CNC(C)(C)[C@H](NC(=O)c1ccc(C#CC#CC(O)CO)cc1)C(=O)NO (stereo partly drawn) [Compound 51, 4-(5,6-dihydroxyhexa-1,3-diyn-1-yl)-N—((S)-1-(hydroxyamino)-3-methyl-3-(methylamino)-1-oxobutan-2-yl)benzamide] | 1 to 8 µg/mL (≈ 2.68 to 21.4 µM) | < 1 µg/mL | < 1 µg/mL | 1.6 | – | – | –
9 | CC(C)(N)[C@H](NC(=O)c1ccc(C#C/C=C/CC(O)CO)cc1)C(=O)NO (stereo partly drawn) [Compound 52, N—((S)-3-amino-1-(hydroxyamino)-3-methyl-1-oxobutan-2-yl)-4-((E)-6,7-dihydroxyhept-3-en-1-yn-1-yl)benzamide] | 8 to 16 µg/mL (≈ 21.3 to 42.6 µM) | 1 to 8 µg/mL (≈ 2.66 to 21.3 µM) | 1 to 8 µg/mL (≈ 2.66 to 21.3 µM) | 1.0 | – | – | –
10 | C[C@@H](CO)[C@H](O)C#CC#Cc1ccc(C(=O)N[C@H](C(=O)NO)C(C)(C)N)cc1 [Compound 53, N—((S)-3-amino-1-(hydroxyamino)-3-methyl-1-oxobutan-2-yl)-4-((5S,6S)-5,7-dihydroxy-6-methylhepta-1,3-diyn-1-yl)benzamide] | 8 to 16 µg/mL (≈ 20.6 to 41.3 µM) | 1 to 8 µg/mL (≈ 2.58 to 20.6 µM) | 1 to 8 µg/mL (≈ 2.58 to 20.6 µM) | 2.0 | – | – | –
11 | CC(C)(N)[C@H](NC(=O)c1ccc(C#CC#C[C@@H](O)CCO)cc1)C(=O)NO [Compound 54, N—((S)-3-amino-1-(hydroxyamino)-3-methyl-1-oxobutan-2-yl)-4-((S)-5,7-dihydroxyhepta-1,3-diyn-1-yl)benzamide] | 8 to 16 µg/mL (≈ 21.4 to 42.8 µM) | < 1 µg/mL | < 1 µg/mL | 2.0 | – | – | –
12 | CC(C)(N)[C@H](NC(=O)c1ccc(C#C/C=C/CCO)cc1)C(=O)NO [Compound 55, (S,E)-N-(3-amino-1-(hydroxyamino)-3-methyl-1-oxobutan-2-yl)-4-(6-hydroxyhex-3-en-1-yn-1-yl)benzamide] | 1 to 8 µg/mL (≈ 2.9 to 23.2 µM) | < 1 µg/mL | < 1 µg/mL | 2.0 | – | – | –
13 | CN[C@H](C)[C@H](NC(=O)c1ccc(C#CC#CCO)cc1)C(=O)NO [Compound 56, N-((2S,3R)-1-(hydroxyamino)-3-(methylamino)-1-oxobutan-2-yl)-4-(5-hydroxypenta-1,3-diyn-1-yl)benzamide] | 1 to 8 µg/mL (≈ 3.04 to 24.3 µM) | < 1 µg/mL | < 1 µg/mL | 2.5 | – | – | –
14 | CC(C)(N)[C@H](NC(=O)c1ccc(C#CC#CC2(O)CCC(CO)C2)cc1)C(=O)NO (stereo partly drawn) [Compound 57, N—((S)-3-amino-1-(hydroxyamino)-3-methyl-1-oxobutan-2-yl)-4-((1-hydroxy-3-(hydroxymethyl)cyclopentyl)buta-1,3-diyn-1-yl)benzamide] | 1 to 8 µg/mL (≈ 2.42 to 19.3 µM) | < 1 µg/mL | < 1 µg/mL | 1.6 | – | – | –
15 | CC(C)(N)[C@H](NC(=O)c1ccc(C#C/C=C/C(O)CO)cc1)C(=O)NO (stereo partly drawn) [Compound 58, N—((S)-3-amino-1-(hydroxyamino)-3-methyl-1-oxobutan-2-yl)-4-((E)-5,6-dihydroxyhex-3-en-1-yn-1-yl)benzamide] | 8 to 16 µg/mL (≈ 22.1 to 44.3 µM) | 1 to 8 µg/mL (≈ 2.77 to 22.1 µM) | 1 to 8 µg/mL (≈ 2.77 to 22.1 µM) | 1.0 | – | – | –
16 | C[C@H](O)C#CC#Cc1ccc(C(=O)N[C@H](C(=O)NO)[C@@H](N)C(F)(F)F)cc1 [Compound 59, N-((2S,3R)-3-amino-4,4,4-trifluoro-1-(hydroxyamino)-1-oxobutan-2-yl)-4-((S)-5-hydroxyhexa-1,3-diyn-1-yl)benzamide] | 1 to 8 µg/mL (≈ 2.61 to 20.9 µM) | < 1 µg/mL | 1 to 8 µg/mL (≈ 2.61 to 20.9 µM) | 3.2 | – | – | –
17 | CC(C)(N)[C@H](NC(=O)c1ccc(C#CC#C[C@H](O)CO)cc1)C(=O)NO [Compound 61, N—((S)-3-amino-1-(hydroxyamino)-3-methyl-1-oxobutan-2-yl)-4-((S)-5,6-dihydroxyhexa-1,3-diyn-1-yl)benzamide] | 1 to 8 µg/mL (≈ 2.78 to 22.3 µM) | < 1 µg/mL | < 1 µg/mL | 1.6 | – | – | –
18 | CC(C)(N)[C@H](NC(=O)c1ccc(C#CC#C[C@@H](O)CO)cc1)C(=O)NO [Compound 62, N—((S)-3-amino-1-(hydroxyamino)-3-methyl-1-oxobutan-2-yl)-4-((R)-5,6-dihydroxyhexa-1,3-diyn-1-yl)benzamide] | 1 to 8 µg/mL (≈ 2.78 to 22.3 µM) | < 1 µg/mL | < 1 µg/mL | 2.0 | – | – | –
